ChEMBL document CHEMBL1155552, “New hydroxypyrimidinone-containing sulfonamides as carbonic anhydrase inhibitors also acting as MMP inhibitors” (Bioorg Med Chem Lett, 2010)

Experiments:
[1] = target: Carbonic anhydrase 9 (Homo sapiens, UniProt Q16790)
Description: Inhibition of human carbonic anhydrase 9

[2] = target: Carbonic anhydrase 2 (Homo sapiens, UniProt P00918); assay: Inhibition of human carbonic anhydrase 2
[3] = target: 72 kDa type IV collagenase (Homo sapiens) (UniProt P08253); assay: Inhibition of MMP2 at 100 uM
[4] = target: 72 kDa type IV collagenase (Homo sapiens) (UniProt P08253); assay: Inhibition of MMP2 at 3 uM
[5] = target: T1, Matrilysin (Homo sapiens) (UniProt P09237); assay: Inhibition of MMP7 at 100 uM
T1 sequence (whole entry): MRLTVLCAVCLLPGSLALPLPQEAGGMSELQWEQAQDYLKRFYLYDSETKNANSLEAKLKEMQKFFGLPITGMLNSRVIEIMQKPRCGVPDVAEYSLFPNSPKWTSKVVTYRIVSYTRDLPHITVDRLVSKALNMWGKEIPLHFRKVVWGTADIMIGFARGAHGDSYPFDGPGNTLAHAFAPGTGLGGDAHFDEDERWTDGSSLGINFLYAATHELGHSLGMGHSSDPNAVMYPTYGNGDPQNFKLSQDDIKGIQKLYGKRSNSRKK

[6] = target: T1, Matrilysin (Homo sapiens); assay: Inhibition of MMP7 at 3 uM
[7] = target: Matrix metalloproteinase-9 (Homo sapiens) (UniProt P14780); assay: Inhibition of MMP9 at 100 uM
Chain of Matrix metalloproteinase-9 (Homo sapiens) (P14780 whole entry): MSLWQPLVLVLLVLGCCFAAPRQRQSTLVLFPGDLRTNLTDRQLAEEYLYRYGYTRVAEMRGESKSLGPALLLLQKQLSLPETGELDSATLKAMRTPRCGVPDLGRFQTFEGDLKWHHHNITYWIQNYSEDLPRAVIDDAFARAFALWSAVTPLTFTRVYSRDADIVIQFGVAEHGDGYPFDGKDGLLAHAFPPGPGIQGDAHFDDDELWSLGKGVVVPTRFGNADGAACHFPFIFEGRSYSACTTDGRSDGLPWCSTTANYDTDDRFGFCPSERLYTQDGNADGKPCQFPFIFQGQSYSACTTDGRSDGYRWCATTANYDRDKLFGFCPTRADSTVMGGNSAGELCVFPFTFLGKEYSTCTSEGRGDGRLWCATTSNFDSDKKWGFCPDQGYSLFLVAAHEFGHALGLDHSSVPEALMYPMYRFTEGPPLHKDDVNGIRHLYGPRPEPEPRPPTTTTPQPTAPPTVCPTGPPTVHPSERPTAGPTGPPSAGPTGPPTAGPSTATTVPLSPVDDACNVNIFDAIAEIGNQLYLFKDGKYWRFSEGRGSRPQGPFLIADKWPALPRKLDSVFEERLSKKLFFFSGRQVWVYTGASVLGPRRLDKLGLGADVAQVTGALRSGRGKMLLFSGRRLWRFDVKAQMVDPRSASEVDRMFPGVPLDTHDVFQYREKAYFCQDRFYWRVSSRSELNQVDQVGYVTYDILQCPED

[8] = target: Matrix metalloproteinase-9 (Homo sapiens) (UniProt P14780); assay: Inhibition of MMP9 at 3 uM
[9] = target: Matrix metalloproteinase-14 (Homo sapiens) (UniProt P50281); assay: Inhibition of MMP14 at 100 uM
[10] = target: Matrix metalloproteinase-14 (Homo sapiens) (UniProt P50281); assay: Inhibition of MMP14 at 3 uM
[11] = target: 72 kDa type IV collagenase (Homo sapiens) (UniProt P08253); assay: Inhibition of MMP2 at 30 uM
[12] = target: Matrix metalloproteinase-9 (Homo sapiens) (UniProt P14780); assay: Inhibition of MMP9 at 10 uM
[13] = target: Matrix metalloproteinase-9 (Homo sapiens) (UniProt P14780); assay: Inhibition of MMP9 at 1 uM
[14] = target: 72 kDa type IV collagenase (Homo sapiens) (UniProt P08253); assay: Inhibition of MMP2 at 300 uM
[15] = target: 72 kDa type IV collagenase (Homo sapiens) (UniProt P08253); assay: Inhibition of MMP2 at 30 nM
[16] = target: Matrix metalloproteinase-9 (Homo sapiens) (UniProt P14780); assay: Inhibition of MMP9 at 30 nM

Chain of 72 kDa type IV collagenase (Homo sapiens) (P08253 110-660 limits assumed): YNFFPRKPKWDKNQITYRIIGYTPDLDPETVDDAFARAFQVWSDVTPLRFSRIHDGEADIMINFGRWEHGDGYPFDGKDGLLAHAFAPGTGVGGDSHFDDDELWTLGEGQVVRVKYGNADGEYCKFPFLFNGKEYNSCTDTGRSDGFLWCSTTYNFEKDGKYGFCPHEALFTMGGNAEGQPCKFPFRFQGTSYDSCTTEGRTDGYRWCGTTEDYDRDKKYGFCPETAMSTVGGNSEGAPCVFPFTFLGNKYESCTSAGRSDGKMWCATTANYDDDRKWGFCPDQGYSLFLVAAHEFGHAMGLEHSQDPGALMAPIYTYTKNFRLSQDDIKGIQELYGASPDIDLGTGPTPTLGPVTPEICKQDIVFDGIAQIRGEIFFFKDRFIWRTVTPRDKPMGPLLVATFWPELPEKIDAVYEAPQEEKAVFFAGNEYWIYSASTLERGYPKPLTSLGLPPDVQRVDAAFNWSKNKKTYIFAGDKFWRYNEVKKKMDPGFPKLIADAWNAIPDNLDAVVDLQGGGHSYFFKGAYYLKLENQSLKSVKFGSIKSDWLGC

Row | Structure (SMILES) | Ki [1] | inhibition [3] | inhibition [4] | inhibition [5] | inhibition [6] | inhibition [7] | inhibition [8] | inhibition [9] | also measured
1 | NS(=O)(=O)c1ccc(CCNC(=O)CCCCCNc2ccn(O)c(=O)n2)cc1 | 4.1 nM | – | – | – | – | – | – | – | –
2 | COC(=O)CCCCCNc1ccn(O)c(=O)n1 | > 1000 nM | – | – | – | – | – | – | – | Ki [2]: 270000 nM
3 | NCCCCCNc1ccn(O)c(=O)n1 | – | 24% | 9% | 30% | 1% | 23% | 3% | 42% | inhibition [10]: 3%
4 | NS(=O)(=O)c1ccc(CCNc2ccn(O)c(=O)n2)cc1 | – | 86% | 7.4% | 38% | – | 67% | – | 48% | inhibition [11]: 19.6%; inhibition [12]: 9%; inhibition [13]: 6%
5 | NCCCCNc1ccn(O)c(=O)n1 | – | – | 22% | 29% | 9% | 26% | 6% | 28% | inhibition [14]: 88%; inhibition [15]: 30%; inhibition [16]: 1%
6 | NS(=O)(=O)c1ccc(NC(=O)CCCNc2ccn(O)c(=O)n2)cc1 | 3.4 nM | – | – | – | – | – | – | – | –
